We go through 3 compounds from patent US20190216089A1, “COMPOUNDED HERBICIDAL COMPOSITION CONTAINING SHUANGZUOCAOTONG AND METHOD OF USING THE SAME” (priority 2016, published 2019).

For one assay, the system named is Descurainia Sophia. Put plainly: Pot-culture greenhouse foliage treatment, fresh weight inhibition (Gowing method). Type of assay: in vivo. Conditions: foliage spray. The protocol: (§1) The above weeds were cultivated by a pot culture method. […] Full and uniform weed seeds were selected, soaked in warm water at 25° C. for 6 hours, and germinated in a 28° C. biochemical incubator (darkness). […] A certain amount of water was added to the enamel pan regularly to keep the soil moist.
(§2) Since these several agents were soluble in acetone, any two TCs were dissolved in acetone, and diluted with an aqueous solution containing 0.1% emulsifier T-80. The dilution was performed as required.
(§3) A ratio of glufosinate ammonium or glyphosate and shuangzuocaotong and amounts thereof in each group depends on the characteristics and toxicity of the two agents, as well as the main application purpose of a corresponding formulation. Glyphosate is a non-selective herbicide and is absorbed by foliage and translocated to various parts of the plant, which is different from the mechanism of action of glufosinate ammonium, i.e., killing roots. […] The control spectrum of Shuangzuocaotong is complementary to that of glyphosate or that of glufosinate ammonium to some extent. […] Based on the pre-tests in this study, the doses of glyphosate, glufosinate ammonium, and Shuangzuocaotong applied alone and in combination were shown in the Table 1 and Table 2, and a total 15 groups were designed, respectively. Water containing the solvent and emulsifying agent same with the above groups but free of the agents was used as a blank control.
(§4) 3 pots with 20 weed seeds per pot were treated in one treatment with […] per treatment, that is, a total of 60 weeds were treated in one treatment.
(§5) The agents were used for only once in the experiment. In the stage of weeds with 2 leaves and 1 core, the weeds were thinned out to maintain 15 weeds per pot and 45 weeds for each treatment, then continued to be cultured until the four true leaves of Descurainia sophia and Capsella bursa-pastoris emerged, and treated.
(§6) The well-cultured weeds were evenly placed on a platform with an area of 0.5 m^2, and a solution of agents was sprayed on the foliage thereof by the 3WP-2000-type walking spray tower at a dosage of 30 kg/ha and at a spray pressure of 0.3 MPa. After all the solution was sprayed, the valve was closed. After 30 seconds, the door of the spray tower was opened, and the nutritional bowl was taken out. Then the valve was opened, and the spray tube was cleaned by spraying 50 ml of water.
(§7) A pot-culture method was employed. For the cultivation of weeds, please refer to the Section 1.1, and “Pesticide guidelines for laboratory bioactivity tests—herbicides”. As to a method for applying agents, please refer to the section 2.3.2, that is, a method for foliage treatment was employed.
(§8) A method for investigating absolute number was employed, wherein whole seedlings of survival weeds were cut off with a blade along the soil surface, and the fresh weight of the weeds was weighed with an analytical balance. For dead weeds, the fresh weight thereof was zero.
(§9) The investigation was performed after 20 days of the treatment for only once.

Another assay concerns Capsella bursa-pastoris. Described as above. Type of assay: in vivo. The note with it: foliage spray. The protocol:
as §1, §2, §3, §4, §5, §6, §7, §8, §9

[1] abbreviates: dose 67.5 g/hm^2, after 20 days (Table 2).
The mark [2] stands for this setting: dose 90 g/hm^2, after 20 days (Table 2).
Setting [3] is: dose 112.5 g/hm^2, after 20 days (Table 2).
Setting [4] is: dose 1125 g/hm^2, after 20 days.

On to `CP(=O)(O)CCC(N)C(=O)O.N` (racemic) [Glufosinate ammonium, ammonium-DL-homoalanin-4-yl(methyl)phosphinate], for which the “actual fresh weight inhibition rate” value in the assay on Descurainia Sophia (dose 300 g/hm^2, after 20 days) amounted to 49.8%; in the assay with Descurainia Sophia (dose 450 g/hm^2, after 20 days), 71.6%; in the assay on Descurainia Sophia (dose 600 g/hm^2, after 20 days), 92.6%; in the assay on Capsella bursa-pastoris (dose 300 g/hm^2, after 20 days), 48.2%; in the assay with Capsella bursa-pastoris (dose 450 g/hm^2, after 20 days), 73.2%; in the assay on Capsella bursa-pastoris (dose 600 g/hm^2, after 20 days), 93.5%.
On to `Cc1nn(C)cc1C(=O)Oc1c(C(=O)c2ccc(C(F)(F)F)cc2S(C)(=O)=O)c(C)nn1C` [Shuangzuocaotong], for which the “actual fresh weight inhibition rate” value is listed as 54.2% with Descurainia Sophia (dose 15 g/hm^2, after 20 days); 76.2% in the assay on Descurainia Sophia (dose 30 g/hm^2, after 20 days); 90.2% with Descurainia Sophia (dose 45 g/hm^2, after 20 days); 53.3% with Descurainia Sophia (setting [1]); 74.3% with Descurainia Sophia (setting [2]); 86.2% in the assay with Descurainia Sophia (setting [3]). The “actual fresh weight inhibition rate” value was found to be 53.2% in the assay with Capsella bursa-pastoris (dose 15 g/hm^2, after 20 days); 75.2% in the assay on Capsella bursa-pastoris (dose 30 g/hm^2, after 20 days); 91.3% in the assay on Capsella bursa-pastoris (dose 45 g/hm^2, after 20 days); 54.1% in the assay on Capsella bursa-pastoris (setting [1]); 72.4% in the assay with Capsella bursa-pastoris (setting [2]); 93.5% in the assay on Capsella bursa-pastoris (setting [3]).
Consider `O=C(O)CNCP(=O)(O)O` [glyphosate, N-(phosphonomethyl)glycine], for which the “actual fresh weight inhibition rate” value in the assay with Descurainia Sophia (dose 675 g/hm^2, after 20 days) stood at 55.2%; in the assay with Descurainia Sophia (dose 900 g/hm^2, after 20 days) it was 73.1%; in the assay on Descurainia Sophia (setting [4]), 91.4%; with Capsella bursa-pastoris (dose 675 g/hm^2, after 20 days) it was 53.2%; with Capsella bursa-pastoris (dose 900 g/hm^2, after 20 days) it was 74.6%; with Capsella bursa-pastoris (setting [4]) it was 92.4%.
